Results: patent US20100144712A1 (priority 2007, published 2010)
≈ marks a conversion by molar mass, not a printed value.

Tests used:
Assay type in all cases: cell-based
[1] = system: Candida albican ATCC MYA-1003; experiment: In vitro antifungal activity (MIC80), Candida albican ATCC MYA-1003; conditions: Candida; Table 2, MYA 1003; read-out: Minimal inhibitory concentration (MIC80)
Procedure: (§1) In vitro antifungal activities of the inventive antifungal compounds were evaluated using test strains including Candida albican (ATCC 90873, 204276, 62342, 64124, 64550, 96901, MYA-573, MYA-574, MYA-575, MYA-576, MYA-1003) and Aspergillus fumigatus (ATCC 16424). Test samples and positive control samples were prepared by dissolving the inventive compounds and comparative compounds, i.e., amphotericin B, fluconazole and itraconazole, in DMSO, respectively, and each successively diluted with medium to obtain test and positive control solutions having test compound concentrations of 0.125 μg/ml to a maximum concentration not generating turbidity. Minimal inhibitory concentration (MIC80) of each compound was determined as the lowest concentration of the test compounds required to reduce growth by 80% relative to a control strain not treated.
(§2) 1) Test strain: Candida albican ATCC 90873, 204276, 62342, 64124, 64550, 96901, MYA-573, MYA-574, MYA-575, MYA-576, MYA-1003, and Aspergillus fumigatus ATCC 16424 were commercially obtained from The American Type Culture Collection (ATCC) and subcultured in CHEMON Co. Ltd. (amphotericin B was commercially purchased from Sigma, and fluconazole and itraconazole were prepared according to methods described in British Patent No. 2,099,818; and U.S. Pat. No. 4,267,179, respectively).
(§3) 2) Medium and culture condition: Candida albican was cultured in Sabourad Dextrose Agar, YM Agar or Potato Dextrose Agar according to ATCC information at a temperature of 37° C., 35° C., 30° C. or 25° C. Aspergillus fumigatus was cultured in Malt Extract Agar or Potato Dextrose Agar at a temperature ranging from 24 to 27° C.
(§4) 3) Preparation of test samples: the inventive compounds and comparative compounds were each diluted with DMSO to obtain 1 to 2 ml of a test sample in a concentration of 100-folds of the determining maximum concentration (256 μg/ml).
(§5) The test samples were each successively diluted with RPMI 1640 to obtain test solutions having concentrations of […] in a 12×75 mm sterilized disposable culture tube. The final concentration of DMSO was adjusted to […] (v/v).
(§6) 5) Preparation of strain solution and inoculation
(§7) Candida albican strains were each subcultured in Sabourad Dextrose Agar, YM Agar or Potato Dextrose Agar medium at 35° C. for 2˜3 days. In the case of yeasts, a single colony was taken from prominent colonies and suspended in 0.85% sterile physiological saline solution and the turbidity of the suspension was adjusted to 80˜82% at 530 nm, and then diluted 50-fold with RPMI 1640 medium to 1.0×10^3˜5.0×10^3 CFU/ml. The turbidity of fungi was adjusted to 80˜82% and the suspension was diluted 50-fold to […]. Aspergillus fumigatus strains were subcultured in Malt Extract Agar for 7˜10 days, and a single colony was taken from prominent colonies and suspended in 0.85% sterile physiological saline solution and the suspension was adjusted to 0.108 at 530 nm, and then diluted 1000-fold with RPMI 1640 medium to 0.4×10^2˜5×10^4 CFU/ml. The turbidity of fungi was adjusted to 80˜82% and the suspension was diluted 50-fold to 0.4102˜0.5104 CFU/ml.
(§8) The strain solutions thus obtained were each seeded into a sterilized 96-well microplate, 0.1 ml of each test solution were added thereto, and […] of alamarblue was treated to each well (Biosource, #DAL1100). This procedure was repeated 2 times.
(§9) Minimal inhibitory concentration (MIC80) of each compound was determined as the lowest concentration of the test compounds required to reduce growth by 80% relative to a control strain not treated.

[2] = system: Candida albican ATCC 62342; experiment: In vitro antifungal activity (MIC80), Candida albican ATCC 62342; conditions: Candida, ATCC62342; Table 2, 62342; read-out: Minimal inhibitory concentration (MIC80)
Procedure: as §1, §2, §3, §4, §5, §6, §7, §8, §9

[3] = system: Candida albican ATCC MYA-573; experiment: In vitro antifungal activity (MIC80), Candida albican ATCC MYA-573; conditions: Candida; Table 2, MYA 573; read-out: Minimal inhibitory concentration (MIC80)
Procedure: as §1, §2, §3, §4, §5, §6, §7, §8, §9

[4] = system: Candida albican ATCC MYA-576; experiment: In vitro antifungal activity (MIC80), Candida albican ATCC MYA-576; conditions: Candida; Table 2, MYA 576; read-out: Minimal inhibitory concentration (MIC80)
Procedure: as §1, §2, §3, §4, §5, §6, §7, §8, §9

[5] = system: Candida albican ATCC 64550; experiment: In vitro antifungal activity (MIC80), Candida albican ATCC 64550; conditions: Candida, ATCC64550; Table 2, 64550; read-out: Minimal inhibitory concentration (MIC80)
Procedure: as §1, §2, §3, §4, §5, §6, §7, §8, §9

[6] = system: Candida albican ATCC 90873; experiment: In vitro antifungal activity (MIC80), Candida albican ATCC 90873; conditions: Candida, ATCC90873; Table 2, ATCC 90873; read-out: Minimal inhibitory concentration (MIC80)
Procedure: as §1, §2, §3, §4, §5, §6, §7, §8, §9

[7] = system: Candida albican ATCC MYA-574; experiment: In vitro antifungal activity (MIC80), Candida albican ATCC MYA-574; conditions: Candida; Table 2, MYA 574; read-out: Minimal inhibitory concentration (MIC80)
Procedure: as §1, §2, §3, §4, §5, §6, §7, §8, §9

[8] = system: Candida albican ATCC 96901; experiment: In vitro antifungal activity (MIC80), Candida albican ATCC 96901; conditions: Candida, ATCC96901; Table 2, ATCC 96901; read-out: Minimal inhibitory concentration (MIC80)
Procedure: as §1, §2, §3, §4, §5, §6, §7, §8, §9

[9] = system: Candida albican ATCC 64124; experiment: In vitro antifungal activity (MIC80), Candida albican ATCC 64124; conditions: Candida, ATCC64124; Table 2, 64124; read-out: Minimal inhibitory concentration (MIC80)
Procedure: as §1, §2, §3, §4, §5, §6, §7, §8, §9

[10] = system: Candida albican ATCC MYA-575; experiment: In vitro antifungal activity (MIC80), Candida albican ATCC MYA-575; conditions: Candida; Table 2, MYA 575; read-out: Minimal inhibitory concentration (MIC80)
Procedure: as §1, §2, §3, §4, §5, §6, §7, §8, §9

MIC80 [1] [µg/mL] | MIC80 [2] [µg/mL] | MIC80 [3] [µg/mL] | MIC80 [4] [µg/mL] | MIC80 [5] [µg/mL] | MIC80 [6] [µg/mL] | MIC80 [7] [µg/mL] | MIC80 [8] [µg/mL] | MIC80 [9] [µg/mL] | MIC80 [10] [µg/mL] | Compound
> 128 | 0.25 (≈ 0.522 µM) | 0.5 (≈ 1.04 µM) | 0.125 (≈ 0.261 µM) | 2 (≈ 4.18 µM) | 0.125 (≈ 0.261 µM) | 2 (≈ 4.18 µM) | 16 (≈ 33.4 µM) | 8 (≈ 16.7 µM) | 0.125 (≈ 0.261 µM) | C[C@@H](N1CCCN(c2ccc3ccccc3n2)CC1)[C@](O)(Cn1cncn1)c1ccc(F)cc1F [Example 40, (2R,3R)-2-(2,4-difluorophenyl)-3-(4-(quinolin-2-yl)-1,4-diazepan-1-yl)-1-(1H-1,2,4-triazol-1-yl)butan-2-ol]
> 128 | 128 (≈ 257 µM) | 32 (≈ 64.2 µM) | 0.5 (≈ 1 µM) | 64 (≈ 128 µM) | 0.5 (≈ 1 µM) | > 128 | > 128 | > 128 | 0.5 (≈ 1 µM) | C[C@@H](N1CCN(c2cccc(OC3CCCC3)n2)CC1)[C@](O)(Cn1cncn1)c1ccc(F)cc1F [Example 22, (2R,3R)-3-(4-(6-(cyclopentyloxy)pyridin-2-yl)piperazin-1-yl)-2-(2,4-difluorophenyl)-1-(1H-1,2,4-triazol-1-yl)butan-2-ol]
32 (≈ 52.2 µM) | 0.25 (≈ 0.408 µM) | 0.25 (≈ 0.408 µM) | 0.125 (≈ 0.204 µM) | 0.5 (≈ 0.816 µM) | 0.125 (≈ 0.204 µM) | 16 (≈ 26.1 µM) | 8 (≈ 13.1 µM) | 2 (≈ 3.26 µM) | 0.125 (≈ 0.204 µM) | C[C@@H](N1CCN(c2nc3ccc(N(C)CCN4CCOCC4)cc3s2)CC1)[C@](O)(Cn1cncn1)c1ccc(F)cc1F [Example 13, (2R,3R)-3-(4-(6-(N-methyl-N-(2-morpholinoethyl)amino)benzothiazol-2-yl)piperazin-1-yl)-2-(2,4-difluorophenyl)-1-(1H-1,2,4-triazol-1-yl)butan-2-ol]
> 128 | 1 (≈ 2.01 µM) | 2 (≈ 4.01 µM) | 0.25 (≈ 0.501 µM) | 1 (≈ 2.01 µM) | 0.125 (≈ 0.251 µM) | 4 (≈ 8.02 µM) | 4 (≈ 8.02 µM) | 64 (≈ 128 µM) | 0.25 (≈ 0.501 µM) | C[C@@H](N1CCN(c2ccc(OC3CCCC3)nc2)CC1)[C@](O)(Cn1cncn1)c1ccc(F)cc1F [Example 31, (2R,3R)-3-(4-(6-(cyclopentyloxy)pyridin-3-yl)piperazin-1-yl)-2-(2,4-difluorophenyl)-1-(1H-1,2,4-triazol-1-yl)butan-2-ol]
> 128 | 0.125 (≈ 0.256 µM) | 0.25 (≈ 0.511 µM) | 0.125 (≈ 0.256 µM) | 0.5 (≈ 1.02 µM) | 0.125 (≈ 0.256 µM) | 0.5 (≈ 1.02 µM) | 2 (≈ 4.09 µM) | 2 (≈ 4.09 µM) | 0.125 (≈ 0.256 µM) | C[C@@H](N1CCN(c2nc3cc(Cl)ccc3o2)CC1)[C@](O)(Cn1cncn1)c1ccc(F)cc1F [Example 5, (2R,3R)-3-(4-(5-chlorobenzooxazol-2-yl)piperazin-1-yl)-2-(2,4-difluorophenyl)-1-(1H-1,2,4-triazol-1-yl)butan-2-ol]
64 (≈ 112 µM) | 2 (≈ 3.5 µM) | 4 (≈ 7.01 µM) | 0.5 (≈ 0.876 µM) | 4 (≈ 7.01 µM) | 0.25 (≈ 0.438 µM) | 8 (≈ 14 µM) | 16 (≈ 28 µM) | 32 (≈ 56.1 µM) | 1 (≈ 1.75 µM) | C[C@@H](N1CCN(c2cccc(N(C)CCCN3CCOCC3)n2)CC1)[C@](O)(Cn1cncn1)c1ccc(F)cc1F [Example 27, (2R,3R)-2-(2,4-difluorophenyl)-3-(4-(6-(methyl(3-morpholinopropyl)amino)pyridin-2-yl)piperazin-1-yl)-1-(1H-1,2,4-triazol-1-yl)butan-2-ol]
> 128 | > 128 | 2 (≈ 3.8 µM) | 0.5 (≈ 0.949 µM) | > 128 | 0.25 (≈ 0.475 µM) | > 128 | > 128 | > 128 | 1 (≈ 1.9 µM) | C[C@@H](N1CCN(c2cccc(OCc3cccs3)n2)CC1)[C@](O)(Cn1cncn1)c1ccc(F)cc1F [Example 25, (2R,3R)-2-(2,4-difluorophenyl)-3-(4-(6-(thiophen-2-ylmethoxy)pyridin-2-yl)piperazin-1-yl)-1-(1H-1,2,4-triazol-1-yl)butan-2-ol]
> 128 | 0.5 (≈ 0.949 µM) | 0.5 (≈ 0.949 µM) | 0.125 (≈ 0.237 µM) | 1 (≈ 1.9 µM) | 0.125 (≈ 0.237 µM) | 1 (≈ 1.9 µM) | > 128 | 8 (≈ 15.2 µM) | 0.125 (≈ 0.237 µM) | C[C@@H](N1CCN(c2ccc(OCc3cccs3)nc2)CC1)[C@](O)(Cn1cncn1)c1ccc(F)cc1F [Example 35, (2R,3R)-2-(2,4-difluorophenyl)-3-(4-(6-(thiophen-2-ylmethoxy)pyridin-3-yl)piperazin-1-yl)-1-(1H-1,2,4-triazol-1-yl)butan-2-ol]
128 (≈ 224 µM) | 4 (≈ 7.01 µM) | 8 (≈ 14 µM) | 4 (≈ 7.01 µM) | 16 (≈ 28 µM) | 2 (≈ 3.5 µM) | 8 (≈ 14 µM) | 16 (≈ 28 µM) | 128 (≈ 224 µM) | 2 (≈ 3.5 µM) | CC(N1CCN(c2ccc(N(C)CCCN3CCOCC3)nc2)CC1)C(O)(Cn1cncn1)c1ccc(F)cc1F (stereo not drawn) [Example 36]
16 (≈ 35.3 µM) | 4 (≈ 8.82 µM) | 1 (≈ 2.21 µM) | 0.125 (≈ 0.276 µM) | 2 (≈ 4.41 µM) | 0.125 (≈ 0.276 µM) | 2 (≈ 4.41 µM) | 32 (≈ 70.6 µM) | 128 (≈ 282 µM) | 0.125 (≈ 0.276 µM) | CC(N1CCCN(c2ccc(C#N)nc2)CC1)C(O)(Cn1cncn1)c1ccc(F)cc1F (stereo not drawn) [Example 39]
> 128 | 8 (≈ 16.9 µM) | 4 (≈ 8.46 µM) | 0.25 (≈ 0.529 µM) | 2 (≈ 4.23 µM) | 0.125 (≈ 0.265 µM) | 8 (≈ 16.9 µM) | > 128 | > 128 | 0.5 (≈ 1.06 µM) | CC(C)Oc1cccc(N2CCN([C@H](C)[C@](O)(Cn3cncn3)c3ccc(F)cc3F)CC2)n1 [Example 24, (2R,3R)-2-(2,4-difluorophenyl)-3-(4-(6-(isopropyloxy)pyridin-2-yl)piperazin-1-yl)-1-(1H-1,2,4-triazol-1-yl)butan-2-ol]
> 128 | 1 (≈ 2.06 µM) | 1 (≈ 2.06 µM) | 0.125 (≈ 0.257 µM) | 1 (≈ 2.06 µM) | 0.125 (≈ 0.257 µM) | 4 (≈ 8.22 µM) | 8 (≈ 16.4 µM) | 4 (≈ 8.22 µM) | 0.5 (≈ 1.03 µM) | CCCCOc1ccc(N2CCN([C@H](C)[C@](O)(Cn3cncn3)c3ccc(F)cc3F)CC2)cn1 [Example 32, (2R,3R)-3-(4-(6-(butyloxy)pyridin-3-yl)piperazin-1-yl)-2-(2,4-difluorophenyl)-1-(1H-1,2,4-triazol-1-yl)butan-2-ol]
